Reference: patent US8633195B1, “Method of inhibiting apolipoprotein-E expression comprising administering a triarylmethyl amine compound” (Fresno California State University, priority 2012, dated 2014)

Experiments:
Format in all cases: cell-based
[1] = system: apoE expression in human HepG2 liver cells; test: ApoE ELISA on conditioned medium of human HepG2 liver cells; conditions: 10 μM compound, 24 hours, normalized to DMSO treated wells
Description: To obtain the data shown in Table 4, the human HepG2 liver cells (ATCC, HB-8065 were maintained in RPMI medium (Mediatech) supplemented with 10 mM HEPES, 1 mM sodium pyruvate, 4.5 g/L glucose, 1% penicillin/streptomycin, and 10% bovine growth serum (HyClone) at 37° C. with 5% CO2
(§1) Compound Nos. 13, 31, 33, 35 or 36—as listed in Table 1—were individually dissolved in DMSO at a stock concentration of 10 mM and individually tested. For ELISA's, 1.6×10^4 cells/96-well were grown for 1 day in RPMI, followed by a 24 hour equilibration in serum-free Opti-MEM (Life Technologies). Treatments were carried out in quadruplicate with 100 μL of fresh Opti-MEM containing 10 μM of compound or vehicle (0.1% DMSO) for 24 hours. Conditioned medium from these samples were then diluted 2-fold with incubation buffer (PBS+0.05% Tween-20+0.1% BSA) and analyzed with a human apoE HRP ELISA kit (Mabtech) according to the manufacturer's protocol.
A standard curve was used to derive sample apoE concentrations. The cells in the 96-well plates were used to determine the total cell number using CyQUANT reagent (Life Technologies). Sample apoE concentrations were adjusted for total cell number and then normalized to DMSO treated wells. Results for each set of compounds tested in parallel (n=3) were analyzed by a one-tailed t-test.
The data in Table 3 were obtained by using an apoE ELISA assay to monitor human HepG2 cell production of apoE after the HepG2 cells were treated with Compound Nos. 13, 31, 33, 35 and 36, as listed on Table 1. The HepG2 liver cells were treated for 24 hours with a 10 μM concentration of each of Compound Nos. 13, 31, 33, 35 and 36, as listed on Table 1.

[2] = system: apoE expression in human CCF-STTG1 astrocytoma cells; test: ApoE ELISA on conditioned medium of human CCF-STTG1 astrocytoma cells; conditions: 10 μM compound, 24 hours; for ApoE (ng/ml) Normalized for Cell Count and Vehicle Treatment: normalized to DMSO treated cells
Description: The triarylmethyl amine compounds, including the ones shown in TABLE 1, were tested for biological effects on mammalian cells in an ELISA, an assay well-known in the art. […] The ELISA technique involves immobilizing an apoE-specific capture antibody to a 96-well plate, addition of sample (conditioned medium from astrocytoma cells treated with the compound for 24 hours), and detection of the bound apoE using a second apoE-specific biotinylated antibody and streptavidin-HRP.
The Mabtech ELISA kit detects the presence of three apoE isoforms: apoE2, apoE3, and apoE4.
as §1, with “All triarylmethyl amine compounds” for “Compound Nos. 13, 31, 33, 35 or 36—as”, “1 were” for “1—were”, “protocol. ApoE concentration in the sample was calculated based on a standard curve derived using known amounts of purified apoE supplied with the kit. The cells in the 96-well plates were used to determine the total cell number using CyQUANT reagent (Life Technologies).” for “protocol.”
The astrocytoma cells were treated for 24 hours with a 10 μM concentration of each of the individual 37 compounds listed in Table 1.

[3] = system: apoE mRNA in HepG2 human liver cells; test: ApoE mRNA qPCR in HepG2 liver cells; conditions: 24 hours in OptiMEM, HPRT1 and β-actin as housekeeping genes
Source text: (§2) Quantitative reverse transcription polymerase chain reaction (qPCR) is a laboratory technique used to amplify and quantify the steady-state levels of apoE messenger RNA (mRNA) by converting the copy DNA (cDNA). The targeted DNA molecule quantity can be determined as a relative amount when normalized to housekeeping genes. For qPCR, reverse transcription is used to quantify the amount of mRNA produced through the balance between transcription rate and degradation rates. The amount of mRNA available is the one factor which can affect the overall protein expression. Quantification of the cDNA produced during reverse transcription of the mRNA may be accomplished by detecting the fluorescent markers, such as fluorophores, that selectively hybridize with the DNA target.
(§3) The HepG2 (ATCC, HB-8065) human liver cells were treated with one of the selected triarylmethyl amine compounds for 24 hours in OptiMEM. The selected triarylmethyl amine compounds were individually dissolved in DMSO at a stock concentration of 10 mM and individually tested. Total RNA was extracted using the RNeasy Plus Mini Kit (Qiagen). Genomic DNA (gDNA) was removed by centrifugation through gDNA eliminator spin columns included with the kit. Samples of total RNA were reverse transcribed following instructions in the Superscript III first strand synthesis kit (Life Technologies). ApoE, HPRT1, and β-actin cDNA levels were quantified by TaqMan multiplex quantitative PCR using a CFX96 Real-Time PCR Detection System (BioRad). Reactions were carried out with SensiMix II Probe Master Mix (Bioline) in a 20 μl total volume containing 5-30 ng of cDNA template. Fluorescent labels and primer/probe concentrations were as follows: apoE (5′-FAM, 600 nM/300 nM), HPRT1 (5′-TEX-615, 100 nM/25 nM), and β-actin (5′-Cy5, 100 nM/25 nM). ZEN double quenched probes (Integrated DNA technologies) were used for all apoE reactions. The reactions were performed in triplicate and the results were analyzed using qbasePLUS (Biogazelle) with HPRT1 and β-actin as housekeeping genes.

[4] = system: apoE mRNA in CCF-STTG1 human astrocytoma cells; test: ApoE mRNA qPCR in CCF-STTG1 astrocytoma cells; parameters: unit not given here; conditions: 24 hours in OptiMEM, HPRT1 and β-actin as housekeeping genes
Source text: as §2
as §3, with “CCF-STTG1” for “HepG2”, “CRL-1718)” for “HB-8065)”, “astrocytoma” for “liver”, “μL” for “μl”

[5] = system: apoE mRNA in H4 human neuroglioma cells; test: ApoE mRNA qPCR in H4 neuroglioma cells; parameters: unit not given here; conditions: 24 hours in OptiMEM, HPRT1 and β-actin as housekeeping genes
Source text: as §2
The selected triarylmethyl amine compounds were individually dissolved in DMSO at a stock concentration of 10 mM and individually tested. Total RNA was extracted using the RNeasy Plus Mini Kit (Qiagen). Genomic DNA (gDNA) was removed by centrifugation through gDNA eliminator spin columns included with the kit. Samples of total RNA were reverse transcribed following instructions in the Superscript III first strand synthesis kit (Life Technologies). ApoE, HPRT1, and β-actin cDNA levels were quantified by TaqMan multiplex quantitative PCR using a CFX96 Real-Time PCR Detection System (BioRad).

Structure (SMILES)	ApoE (ng/ml) Normalized for Cell Count and Vehicle Treatment [1] [ng/mL]	Inhibition Percentage of ApoE Expression [2] [%]	Inhibition Percentage of ApoE Expression ([2]; listed as compound 35)	ApoE (ng/ml) Normalized for Cell Count and Vehicle Treatment [2] [ng/mL]	ApoE (ng/ml) Normalized for Cell Count and Vehicle Treatment [3]	ApoE (ng/ml) Normalized for Cell Count and Vehicle Treatment [4]	Inhibition Percentage of ApoE Expression ([2]; listed as compound 31)	Inhibition Percentage of ApoE Expression ([2]; listed as compound 36)	Inhibition Percentage of ApoE Expression ([2]; listed as compound 33)	ApoE (ng/ml) Cell Count Normalized for Cell Count and Vehicle Treatment [5]
CC(C)CNC(c1ccccc1)(c1ccccc1)c1ccc2ccccc2c1 [Compound 35, isobutyl-(naphthalen-2-yl-diphenyl-methyl)-amine]	0.78	50	about 50%	0.50	1.03 ratio to vehicle	0.87	–	–	–	–
CCN(CC)C(c1ccccc1)(c1ccccc1)c1ccc(OC)cc1 [Compound 17, Diethyl-[(4-methoxy-phenyl)-diphenyl-methyl]-amine]	–	17	–	0.83	–	–	–	–	–	–
c1ccc(C(NCC2CCCCC2)(c2ccccc2)c2ccccc2)cc1 [Compound 13, cyclohexylmethyl-trityl-amine]	1.03	–	–	0.49	1.16 ratio to vehicle	1.10	–	–	–	–
c1ccc(C(c2ccccc2)(c2ccc3ccccc3c2)N2CCCC2)cc1 [Compound 31, 1-(naphthalen-2-yl-diphenyl-methyl)-pyrrolidine]	0.64	49	–	0.51	0.86 ratio to vehicle	0.86	about 49%	–	–	–
CCC(C)NC(c1ccccc1)(c1ccccc1)c1ccc2ccccc2c1 (stereo not shown) [Compound 36, sec-butyl-(naphthalen-2-yl-diphenyl-methyl)-amine]	0.81	66	–	0.34	0.93 ratio to vehicle	0.85	–	about 66%	–	–
CN(C)C(c1ccccc1)(c1ccccc1)c1ccccc1 [Compound 1]	–	8	–	0.92	–	–	–	–	–	–
COc1ccc(C(c2ccccc2)(c2ccccc2)N(C)C)cc1 [Compound 16]	–	35	–	0.65	–	–	–	–	–	–
c1ccc(C(c2ccccc2)(c2ccc3ccccc3c2)N2CCOCC2)cc1 [Compound 33, 4-(Naphthalen-2-yl-diphenyl-methyl)-morpholine]	0.77	46	–	0.54	1.22 ratio to vehicle	0.88	–	–	about 46%	0.59
CN(C)C(c1ccccc1)(c1ccccc1)c1ccc2ccccc2c1 [Compound 28]	–	35	–	0.65	–	–	–	–	–	–
